Assays:
Hepatitis B virus [1] = test: Antiviral activity against HBV infected in human HepG2(2.2.15) cells assessed as inhibition of viral DNA level; format: functional, cell-based
Hepatitis B virus [2] = test: Antiviral activity against HBV infected in human HepaRG cells assessed as reduction in viral infection after 16 hrs
Hepatitis B virus [3] = test: Antiviral activity against HBV infected in human HuS-E/2 cells assessed as inhibition of viral mRNA level at 50 uM treated for 20 hrs measured after 7 days by RT-PCR method relative to control; format: functional
Hepatitis B virus [4] = test: Antiviral activity against HBV infected in human HepG2(2.2.15) cells assessed as inhibition of viral DNA level after 8 days by RT-PCR method; format: functional, cell-based; conditions: HepG2 2.2.15, 192 h
Hepatitis B virus [5] = test: Inhibition of HBV C150-Bodipy labeled capsid (1 to 150 residues) C49A/C61A/C107A mutant expressed in Escherichia coli assessed as reduction in NaCl-induced capsid assembly at 10 uM preincubated for 15 mins followed by NaCl addition measured after 1 hr by fluorescence quenching assay relative to control
Hepatitis B virus [6] = test: Antiviral activity against HBV infected in human HepG2(2.2.15) cells assessed as inhibition of viral DNA level after 24 hrs by RT-PCR method; format: functional, cell-based; conditions: HepG2 2.2.15, 24 h
[7] = Cytotoxicity against human HepG2(2.2.15) cells after 24 hrs by MTS assay; format: cell-based
Hepatitis B virus [8] = test: Antiviral activity against HBV infected in human HepG2(2.2.15) cells assessed as reduction in intracellular viral capsid level at antiviral IC50 by immunoblot method; format: functional
[9] = Cytotoxicity against human HepG2(2.2.15) cells assessed as reduction in cell viability after 3 days by methylene blue assay; format: cell-based
Hepatitis B virus [10] = test: Antiviral activity against HBV infected in human HepG2.N9 cells assessed as reduction in HBeAg level measured on day 8 post infection; format: functional, cell-based; conditions: 192 h
Hepatitis B virus [11] = test: Antiviral activity against HBV infected in human HepG2(2.2.15) cells assessed as inhibition of extracellular viral DNA level; format: functional, cell-based
Hepatitis B virus [12] = test: Antiviral activity against HBV infected in human HepG2(2.2.15) cells assessed as inhibition of viral RNA level; format: functional, cell-based
Hepatitis B virus [13] = test: Antiviral activity against HBV infected in human HepG2(2.2.15) cells assessed as inhibition of viral DNA level after 6 days by Southern blot analysis; format: functional, cell-based; conditions: HepG2 2.2.15, 144 h
Hepatitis B virus [14] = test: Antiviral activity against HBV infected in human HepAD38 cells; format: functional, cell-based

For `CCOC(=O)C1=C(CN2CCOCC2)NC(c2nccs2)=NC1c1ccc(F)cc1Br` (configuration not stated), the IC50 (Hepatitis B virus [1]) was 12 nM.
Work on `C/C=C/C[C@@H](C)[C@@H](O)[C@H]1C(=O)N[C@@H](CC)C(=O)N(C)CC(=O)N(C)[C@@H](CC(C)C)C(=O)N[C@@H](C(C)C)C(=O)N(C)[C@@H](CC(C)C)C(=O)N[C@@H](C)C(=O)N[C@H](C)C(=O)N(C)[C@@H](CC(C)C)C(=O)N(C)[C@@H](CC(C)C)C(=O)N(C)[C@@H](C(C)C)C(=O)N1C` [CYCLOSPORINE] yielded an IC50 (Hepatitis B virus [2]) of under 200 nM.
Molecule `O=C(O[C@@H]1Cc2c(O)cc(O)cc2O[C@@H]1c1cc(O)c(O)c(O)c1)c1cc(O)c(O)c(O)c1` [EPIGALOCATECHIN GALLATE] has an inhibition at 50 µM (Hepatitis B virus [3]) of over 80%.
Work on `CCOC(=O)c1sc(-c2nc(C)cs2)nc1CC(C)C` yielded an IC50 (Hepatitis B virus [4]) of 140 nM.
`O=C(Nc1ccc(F)c(Cl)c1)N1CCCN(c2c(Cl)cncc2Cl)CC1` showed an inhibition (Hepatitis B virus [5]) of over 50%.
For `O=C(CNC(=O)c1ccc(F)cc1)Nc1ccc(Cl)nc1Cl`, the IC50 (Hepatitis B virus [6]) was 880 nM, the CC50 at 24 h [7] was 144000 nM and the “inhibition (INH)” value (Hepatitis B virus [8]) was 51%.
For `O=c1[nH][nH]c(=O)c2c(-c3ccc4c(c3)OCO4)c3c4c(ccc3cc12)OCO4`, the CC50 at 72 h [9] was 9000 nM.
In the case of `CCCCC1=NC2(CCCC2)C(=O)N1Cc1ccc(-c2ccccc2-c2nnn[nH]2)cc1` [IRBESARTAN], the IC50 (Hepatitis B virus [10]) is reported as 3300 nM.
With `O=C(Nc1ncc([N+](=O)[O-])s1)c1ccccc1O` [TIZOXANIDE] the IC50 (Hepatitis B virus [11]) was 150 nM.
With `CC(C)Cc1nc(-c2nccs2)sc1C(=O)NCc1ccc(F)cc1` the IC50 (Hepatitis B virus [12]) was 1330 nM.
With `CC(=O)Oc1ccccc1C(=O)Nc1ncc([N+](=O)[O-])s1` [NITAZOXANIDE] the IC50 (Hepatitis B virus [11]) was 120 nM.
With `CC(=O)Nc1ccc(-c2cc(C)c(=O)n(Cc3ccc(Cl)cc3)n2)cc1` the IC50 (Hepatitis B virus [4]) was 1500 nM.
`CCOC(=O)C1=C(C)NC(c2ncccc2F)=N[C@@H]1c1ccc(F)cc1Cl` showed an IC50 (Hepatitis B virus [1]) of 150 nM.
For `COC(=O)C1=C(CN2CCOCC2)NC(c2nccs2)=N[C@H]1c1ccc(F)cc1Br`, the IC50 (Hepatitis B virus [1]) was 11 nM.
Work on `O=C1OCc2c1cc1ccc3c(c1c2-c1ccc2c(c1)OCO2)OCO3` [HELIOXANTHIN] yielded a CC50 at 72 h [9] of 6000 nM and an IC50 (Hepatitis B virus [13]) of 1000 nM.
`O=c1cc(-c2ccc(O)c(-c3c(O)cc4oc(-c5ccc(O)cc5)cc(=O)c4c3O)c2)oc2cc(O)cc(O)c12` [ROBUSTAFLAVONE] gave an IC50 (Hepatitis B virus [1]) of 250 nM.
For `CC(=O)[C@]1(O)CC[C@@]2(O)[C@]1(C)[C@H](OC(=O)/C=C(\C)C(C)C)C[C@@H]1[C@@]3(C)CC[C@H](O)CC3=CC[C@]12O` [CAUDATIN], the IC50 (Hepatitis B virus [1]) was 40600 nM.
Work on `COc1ccccc1/C(Br)=C(/NC(=O)c1ccc([N+](=O)[O-])cc1)C(=O)N1CCCCC1` yielded an IC50 (Hepatitis B virus [14]) of 130 nM.
Work on `CCOC(=O)C1=C(C)NC(c2c(F)cc(F)cc2F)=N[C@H]1c1ccc(F)cc1Cl` yielded an IC50 (Hepatitis B virus [1]) of 280 nM.
